Laboratory results taken from patent US11498923B2 (Merck Sharp & Dohme Corp., priority 2017, dated 2022).

Target: T1, human A2a receptor (Homo sapiens, UniProt P29274)
T1 construct: purchased Perkin-Elmer RBHA2AM400UA; host or cells: HEK293 cells, used as a membrane preparation
Assay: A2a receptor competition binding assay (Scintillation Proximity)
Conditions: membranes from HEK293 cells expressing human A2a receptor; 0.5 nM tritiated ligand; Cheng-Prusoff; read-out: A2a Ki
Method: Binding affinities of compounds of the invention for the human A2a receptor were determined in a competition binding assay using Scintillation Proximity technology. Thus, 0.3 μg of membranes from HEK293 cells expressing the human A2a receptor were incubated with a compound of the invention at concentrations ranging from 3000 nM to 0.15 nM in a reaction mixture containing also 0.5 nM of a tritiated form of 5-amino-7-[2-phenethyl]-2-(furan-2-yl)-7H-pyrazolo[4,3-e][1,2,4]triazolo[1,5-c]pyrimidine (the tritiated compound) and 100 μg of wheat germ agglutin-coated yttrium silicate SPA beads for one hour at room temperature with agitation. The beads were then allowed to settle to the bottom of the wells for 1 hr, after which the membrane-associated radioactivity was determined by scintillation counting in a TopCount microplate reader. Ki values were determined using the Cheng-Prusoff equation.
Summary of Materials and Methods Used in A2a Activity Determination:
HEK293 cells expressing the human, rat, dog or monkey adenosine 2a receptor (Purchased from Perkin-Elmer #RBHA2AM400UA).
The Tritiated compound was prepared according to published methods.
Wheat germ agglutinin-coated yttrium silicate SPA beads (GE Healthcare #RPNQ0023). Dilute to 25 mg/ml in assay buffer.
Assay Buffer was prepared using Dulbecco's calcium and magnesium free phosphate buffered saline+10 mMMgCl2
Adenosine deaminase from calf intestine, 10 mg/2 ml (Roche #10 102 105 001).
A2a antagonist standard (9-chloro-1-(2-furanyl)-[1,2,4]triazolo1,5-c]quinazolin-5-amine from Tocris Bioscience)
Make eight 1:3 serial dilutions in 100% DMSO from a 3 mM compound stock
Transfer 50 nl of compound into a 384-well OptiPlate (Perkin Elmer).
Typically, final concentrations of compound used in the assay ranged from 3000 nM to 0.152 nM.
Dilute a solution of the Tritiated compound to 1.25 nM in assay buffer. This is a 2.5× solution. The final concentration in the assay is 0.5 nM. Calculate the concentration by counting two 5 μl aliquots.
Use 0.25 ug of membrane/well. Dilute membranes to 9.7 μg/ml in assay buffer. Treat with 20 ug/ml adenosine deaminase (ADA) for 15 minutes at room temperature to degrade endogenous adenosine.
Use 100 μg/well wheat germ agglutinin-coated yttrium silicate SPA beads.
Mix ADA-treated membranes and SPA beads together for 30 min prior to assay.
To the Perkin-Elmer Optiplate-384 containing the compound titration add 20 μl of 2.5× solution of the Tritiated compound and 30 μl of the membrane-bead mixture. Incubate for one hour at room temperature with agitation.
Include total binding (assay buffer+1% DMSO) and non-specific binding (CGS15943, 1 μM) wells.
Allow the beads to settle for one hour.
A curve fitting program (i.e., Prism, Activity Base, Chemcart) is used to determine the EC50. The Ki value is calculated using the Cheng-Prusoff equation. Ki=EC50/(1+(radioligand concentration/Kd))

T1 sequence (P29274 whole entry): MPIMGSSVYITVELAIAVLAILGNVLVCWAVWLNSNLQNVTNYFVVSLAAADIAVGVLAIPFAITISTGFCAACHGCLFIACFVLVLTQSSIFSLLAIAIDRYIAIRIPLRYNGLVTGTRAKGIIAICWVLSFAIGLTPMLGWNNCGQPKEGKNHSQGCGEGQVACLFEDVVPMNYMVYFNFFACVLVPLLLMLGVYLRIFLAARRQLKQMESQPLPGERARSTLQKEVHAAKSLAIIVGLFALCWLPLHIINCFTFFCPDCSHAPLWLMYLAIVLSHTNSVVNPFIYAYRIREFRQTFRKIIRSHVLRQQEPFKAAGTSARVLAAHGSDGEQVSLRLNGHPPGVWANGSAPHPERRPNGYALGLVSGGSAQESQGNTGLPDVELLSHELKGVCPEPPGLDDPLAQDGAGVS

Nc1nc2c(F)cccc2c2nc(Cc3ccccc3CN3CCN(c4nc5ccccc5o4)CC3)cn12
Ki: 20 nM

COc1cccc2c1nc(N)n1cc(Cc3ccccc3)nc21 [Ex-01, 2-benzyl-7-methoxyimidazo[1,2-c]quinazolin-5-amine]
Ki: 0.4 nM

Nc1nc2ccccc2c2nc(Cc3ccccc3)cn12 [Ex-02, 2-benzylimidazo[1,2-c]quinazolin-5-amine]
Ki: 5.8 nM

COc1ccc2c(c1)nc(N)n1cc(Cc3ccccc3)nc21 [Ex-03, 2-benzyl-8-methoxyimidazo[1,2-c]quinazolin-5-amine]
Ki: 2.6 nM

COc1ccc2nc(N)n3cc(Cc4ccccc4)nc3c2c1 [Ex-04, 2-benzyl-9-methoxyimidazo[1,2-c]quinazolin-5-amine]
Ki: 89.6 nM

COc1cccc2nc(N)n3cc(Cc4ccccc4)nc3c12 [Ex-05, 2-benzyl-10-methoxyimidazo[1,2-c]quinazolin-5-amine]
Ki: 642 nM

Nc1nc2c(F)cccc2c2nc(Cc3ccccc3)cn12 [Ex-06, 2-benzyl-7-fluoroimidazo[1,2-c]quinazolin-5-amine]
Ki: 0.9 nM

Nc1nc2cc(F)ccc2c2nc(Cc3ccccc3)cn12 [Ex-07, 2-benzyl-8-fluoroimidazo[1,2-c]quinazolin-5-amine]
Ki: 4.6 nM

Nc1nc2ccc(F)cc2c2nc(Cc3ccccc3)cn12 [Ex-08, 2-benzyl-9-fluoroimidazo[1,2-c]quinazolin-5-amine]
Ki: 3.6 nM

Nc1nc2cccc(F)c2c2nc(Cc3ccccc3)cn12 [Ex-09, 2-benzyl-10-fluoroimidazo[1,2-c]quinazolin-5-amine]
Ki: 6.3 nM

Nc1nc2c(OC(F)(F)F)cccc2c2nc(Cc3ccccc3)cn12 [Ex-10, 2-benzyl-7-(trifluoromethoxy)imidazo[1,2-c]quinazolin-5-amine]
Ki: 6.2 nM

COc1c(F)ccc2c1nc(N)n1cc(Cc3ccccc3)nc21 [Ex-11, 2-benzyl-8-fluoro-7-methoxyimidazo[1,2-c]quinazolin-5-amine]
Ki: 2 nM

Nc1nc2c(F)ccc(Br)c2c2nc(Cc3ccccc3)cn12 [Ex-12, 2-benzyl-10-bromo-7-fluoroimidazo[1,2-c]quinazolin-5-amine]
Ki: 7.7 nM

Nc1nc2cc(N3CCOCC3)c(F)cc2c2nc(Cc3ccccc3)cn12 [Ex-13, 2-benzyl-9-fluoro-8-morpholinoimidazo[1,2-c]quinazolin-5-amine]
Ki: 920 nM

Nc1nc2ccccc2c2nc(Cc3ccccc3C(F)(F)F)cn12 [Ex-14, 2-(2-(trifluoromethyl)benzyl)imidazo[1,2-c]quinazolin-5-amine]
Ki: 2.3 nM

Nc1nc2ccccc2c2nc(Cc3cccc4cccnc34)cn12 [Ex-15, 2-(quinolin-8-ylmethyl)imidazo[1,2-c]quinazolin-5-amine]
Ki: 2 nM

COc1cccc2c1nc(N)n1cc(Cc3cccc4cccnc34)nc21 [Ex-16, 7-methoxy-2-(quinolin-8-ylmethyl)imidazo[1,2-c]quinazolin-5-amine]
Ki: 0.3 nM

COc1cccc2c1nc(N)n1cc(Cc3ccccc3C(F)(F)F)nc21 [Ex-17, 7-methoxy-2-(2-(trifluoromethyl)benzyl)imidazo[1,2-c]quinazolin-5-amine]
Ki: 0.8 nM

COc1cccc2c1nc(N)n1cc(Cc3ccc(F)cc3F)nc21 [Ex-18, 2-(2,4-difluorobenzyl)-7-methoxyimidazo[1,2-c]quinazolin-5-amine]
Ki: 1 nM

COc1cccc2c1nc(N)n1cc(Cc3ccccc3N3CCOCC3)nc21 [Ex-19, 7-methoxy-2-(2-morpholinobenzyl)imidazo[1,2-c]quinazolin-5-amine]
Ki: 4.5 nM

COc1cccc2c1nc(N)n1cc(Cc3ccccc3N(C)C)nc21 [Ex-20, 2-(2-(dimethylamino)benzyl)-7-methoxyimidazo[1,2-c]quinazolin-5-amine]
Ki: 1.4 nM

COc1cccc2c1nc(N)n1cc(Cc3ccc(F)cc3)nc21 [Ex-21, 2-(4-fluorobenzyl)-7-methoxyimidazo[1,2-c]quinazolin-5-amine]
Ki: 0.8 nM

COc1cccc2c1nc(N)n1cc(Cc3cccc(F)c3)nc21 [Ex-22, 2-(3-fluorobenzyl)-7-methoxyimidazo[1,2-c]quinazolin-5-amine]
Ki: 1.9 nM

COc1cccc2c1nc(N)n1cc(Cc3c(Cl)cccc3Cl)nc21 [Ex-23, 2-(2,6-dichlorobenzyl)-7-methoxyimidazo[1,2-c]quinazolin-5-amine]
Ki: 2.1 nM

COc1cccc2c1nc(N)n1cc(Cc3cccc(-c4ccccc4)c3)nc21 [Ex-24, 2-([1,1′-biphenyl]-3-ylmethyl)-7-methoxyimidazo[1,2-c]quinazolin-5-amine]
Ki: 10 nM

Nc1nc2ccccc2c2nc(Cc3ccccc3CN3CCOCC3)cn12 [Ex-25, 2-(2-(morpholinomethyl)benzyl)imidazo[1,2-c]quinazolin-5-amine]
Ki: 10.2 nM

COc1cccc2c1nc(N)n1cc(Cc3ccccc3CN3CCOCC3)nc21 [Ex-26, 7-methoxy-2-(2-(morpholinomethyl)benzyl)imidazo[1,2-c]quinazolin-5-amine]
Ki: 0.4 nM

Nc1nc2c(F)cccc2c2nc(Cc3ccccc3-c3ccccc3)cn12 [Ex-27, 2-([1,1′-biphenyl]-2-ylmethyl)-7-fluoroimidazo[1,2-c]quinazolin-5-amine]
Ki: 2.6 nM

COc1cccc2c1nc(N)n1cc(Cc3cccc(N4CCOCC4)c3)nc21 [Ex-28, 7-methoxy-2-(3-morpholinobenzyl)imidazo[1,2-c]quinazolin-5-amine]
Ki: 2.1 nM

COc1cccc2c1nc(N)n1cc(Cc3ccccc3N3CCCC3)nc21 [Ex-29, 7-methoxy-2-(2-(pyrrolidin-1-yl)benzyl)imidazo[1,2-c]quinazolin-5-amine]
Ki: 1.6 nM

COc1cccc2c1nc(N)n1cc(Cc3cc(C(F)(F)F)ccc3N3CCOCC3)nc21 [Ex-30, 7-methoxy-2-(2-morpholino-5-(trifluoromethyl)benzyl)imidazo[1,2-c]quinazolin-5-amine]
Ki: 38 nM

COc1cccc2c1nc(N)n1cc(Cc3c(O)cccc3F)nc21 [Ex-31, 2-((5-amino-7-methoxyimidazo[1,2-c]quinazolin-2-yl)methyl)-3-fluorophenol]
Ki: 2.1 nM

Nc1nc2c(F)cccc2c2nc(Cc3cccc4cccnc34)cn12 [Ex-32, 7-fluoro-2-(quinolin-8-ylmethyl)imidazo[1,2-c]quinazolin-5-amine]
Ki: 2 nM

Nc1nc2c(F)cccc2c2nc(Cc3cccc(CN4CCOCC4)c3)cn12 [Ex-33, 7-fluoro-2-(3-(morpholinomethyl)benzyl)imidazo[1,2-c]quinazolin-5-amine]
Ki: 3 nM

Nc1nc2c(F)cccc2c2nc(Cc3cccc(Cc4ccccc4)c3)cn12 [Ex-34, 2-(3-benzylbenzyl)-7-fluoroimidazo[1,2-c]quinazolin-5-amine]
Ki: 21 nM

Nc1nc2c(F)cccc2c2nc(Cc3ccccc3CN3CCOCC3)cn12 [Ex-35, 7-fluoro-2-(2-(morpholinomethyl)benzyl)imidazo[1,2-c]quinazolin-5-amine]
Ki: 6 nM

COc1cccc2c1nc(N)n1cc(Cc3ccccc3N3CCCCC3)nc21 [Ex-36, 7-methoxy-2-(2-(piperidin-1-yl)benzyl)imidazo[1,2-c]quinazolin-5-amine]
Ki: 2.8 nM

Nc1nc2c(F)cccc2c2nc(Cc3cc(F)ccc3O)cn12 [Ex-37, 2-((5-amino-7-fluoroimidazo[1,2-c]quinazolin-2-yl)methyl)-4-fluorophenol]
Ki: 18 nM

COc1cccc2c1nc(N)n1cc(Cc3cccnc3Cl)nc21 [Ex-38, 2-((2-chloropyridin-3-yl)methyl)-7-methoxyimidazo[1,2-c]quinazolin-5-amine]
Ki: 2.3 nM
